Laboratory results from publication PMC12663132, “Assessment of cytotoxicity of some synthetic compounds against breast carcinoma spheroids with subsequent analysis of pro-apoptotic and gene expression” (Scientific Reports, 2025).
Read-outs that look alike come from different tables or passages of the source.

Key:
MCF7 cell line = test: Pro-apoptotic activity, M30 Cytodeath ELISA (CK18-Asp396); type: cell-based, human; conditions: MCF7 monolayers, 50 µM, 24 h
Protocol: The pro-apoptotic activity is measured as fold increase of the spontaneous apoptosis occurred in the DMSO treated negative control ± standard deviation.
The cutoff was determined as fourfold increase in the apoptosis signal of the negative control.
The accumulation of CK18-Asp396 in treated MCF7 cell cultures was quantified using the M-30 Cytodeath® ELISA kit according to the manufacturer’s instructions. Briefly, the MCF7 cell line monolayers were exposed to the chemical compounds at a concentration of 50 µM. Following 24 h of incubation, the culture medium was supplemented with 0.1% NP40. Subsequently, aliquots of 25 µL from each well, containing CK18 released into the medium from attached and floating cells and cell fragments, were subjected to the ELISA assay. Cleaved CK18 levels were determined by measuring the absorbance at 450 nm[46].

MCF7 = test: Cytotoxicity on MCF7 monolayers (MTT assay); conditions: Homo sapiens, MCF7, 72 h, read-out: Mean of % cytotoxicity ± SD
Protocol: (§1) Eighty pre-plated synthetic chemical compounds were screened on two human cell lines: MCF7 (ATCC® HTB-22™), a Caucasian breast adenocarcinoma model, and hTERT-RPE-1 (ATCC® CRL-4000™), a normal retinal epithelial cell line immortalized by hTERT telomerase. […] The cells were cultured in DMEM-F12 medium supplemented with L-glutamine and 10% fetal bovine serum, all were purchase from Biowest (Biotechnology company in Nuaillé, France), and maintained in a controlled incubator environment set at 37 °C with 5% CO2 and 95% humidity.
MCF7 cells were seeded in flat-bottom 96-well plates with a concentration of 20,000 cells/well, and were left overnight. The compounds were tested at a final concentration of 50 µM. Doxorubicin was used as a positive control and 0.5% DMSO as a negative control. The treatment duration was 72 h. The cytotoxicity was then assessed using the MTT assay, as described by Mosmann[43].

MCF7 3D spheroids = test: Cytotoxicity on MCF7 3D multicellular spheroids (acid phosphatase method); conditions: for cytotoxicity at 50 µM: MCF7, 120 h, read-out: Mean of % cytotoxicity ± S.D
Protocol: as §1
3-D spheroid models were generated from MCF7 cancer and hTERT-RPE1 normal cells were seeded at 10,000 and 50,000 cells/well, respectively, in poly-HEMA coated round bottom plates according to the protocol previously mentioned[44]. The cells were incubated for 5 days to generate the spheroids with diameter of 500 ± 20 µm. The spheroids were imaged using Olympus S100, U-CMAD3 camera connected to Olympus inverted microscope and the diameter of the spheroids was measured using Cellscen-Entry software. Test compounds were added in triplicate to a final concentration of 50 µM and were incubated for 120 h. […] At the end of incubation, cytotoxicity was determined using the acid phosphatase method[45]. After washing twice with 250 μL PBS buffer, 100 μL of 0.1 M sodium citrate, 0.1% Triton X-100, p-nitrophenylphosphate (2 mg/ml) (Pierce Biotechnology Inc., Rockford, IL) was added to each well and incubated for 1.5 h at 37 °C. After incubation, 10 μL of 1N NaOH stop solution was added to each well, and absorbance was read at 405 nm. Cytotoxicity was calculated according to the following equation:

hTERT-RPE1 3D spheroids = test: Cytotoxicity on normal RPE1 3D spheroids (acid phosphatase method); type: cell-based, human; conditions: 120 h
Protocol: These cell lines were generously provided by Prof. Stig Linder, Karolinska Institute (Sweden).
Cytotoxicity was calculated according to the following equation: […]

MCF7 breast cancer cells = test: Gene expression profiling by real-time PCR (p53, Bax, Bcl-2, IL-6, TNF-alpha, MMP1); type: cell-based, human; conditions: MCF7, IC50 concentration, 24 h, qRT-PCR
Protocol: Total RNA was extracted from both control and treated cells using the RNeasy kit. Up to one million cells were subjected to disruption in Buffer RLT, homogenization, and ethanol treatment to promote selective binding of RNA to the RNeasy membrane. High-purity RNA was subsequently eluted using RNase-free water. All binding, washing, and elution steps were performed using centrifugation in a micro-centrifuge. The sample was then applied to an RNeasy Mini spin column, enabling total RNA retention on the membrane while contaminants were efficiently eliminated. The RNA was then used as a template for real-time PCR to quantify the mRNA levels of genes. Two sets of primers were used—one for the IL-6, TNF-alpha, MMP1, p53, Bcl-2, and Bax genes and another for the endogenous control gene, β-actin (Table 6). The real-time PCR reaction was carried out with the following cycling conditions: 50 °C for 45 min (cDNA synthesis), followed by 40 cycles of 95 °C for 10 s and 60 °C for 60 s. A negative control was included to ensure primer specificity and rule out contamination. Finally, the statistical analysis of the expression of the genes was performed using one-way ANOVA followed by the Tukey–Kramer post-test.

[1] = Homo sapiens, MCF7, read-out: IC50 (µM) for MCF7 ± SD, MCF7 3D spheroids

SMILES | Fold increase (apoptosis signal vs DMSO negative control) (MCF7 cell line) | cytotoxicity at 50 µM (MCF7) | cytotoxicity at 50 µM (MCF7 3D spheroids; Homo sapiens) | IC50 (MCF7 3D spheroids; [1]) | Cytotoxic effect% ± SD RPE1(50µM) (hTERT-RPE1 3D spheroids) | Expression of apoptosis-related genes (Bax, P53, Bcl-2) (MCF7 breast cancer cells) | IC50 (MCF7 3D spheroids; read-out: IC50 (µM) for MCF7 ± SD, MCF7 3D spheroids)
Cc1cccc(C)c1NC(=O)COC(=S)c1sc2ccccc2c1Cl [A07, 2-(2,6-dimethylanilino)-2-oxoethyl 3-chlorobenzo[b] thiophene-2-carbothioate] | 3.64 fold | 36.5 ± 1.2% | 75.1 ± 0.53% | 31.7 ± 1.2 µM |  |  | 
O=C(NCCc1c[nH]c2ccccc12)Nc1ccc(Cl)cc1 [D08, N-(4-chlorophenyl)-N'-[2-(1H-indol-3-yl)ethyl]urea] | 2.14 fold | 97.7 ± 0.47% | 74 ± 2.9% | 36.9 ± 0.6 µM | 39.4 ± 1% |  | 
COc1ccc(OCCC(=O)NNC(=S)Nc2cc(Cl)ccc2Cl)cc1 [F06, N1-(2,5-dichlorophenyl)-2-[3-(4-methoxyphenoxy)propanoyl]hydrazine-1-carbothioamide] |  | 80.1 ± 1.7% | 88 ± 2.5% | < 26 µM | 18.4 ± 0.5% | greater ability to downregulate Bcl-2 while upregulating both P53 and Bax expression compared to the other compounds | 24.8 ± 0.6 µM
COC(=O)c1cc(C=C(C#N)C#N)c(OC)cc1OC [H09, methyl 5-(2,2-dicyanovinyl)-2,4-dimethoxybenzoate] | 2.56 fold | 86.2 ± 1.7% | 80.8 ± 0.77% | 41.2 ± 0.83 µM | 41.2 ± 1.6% |  | 
